Source: paper PMC5013675, “Nucleotide binding by the widespread high-affinity cyclic di-GMP receptor MshEN domain” (Nature Communications, 2016)
Values joined by “and” are separate entries in the source; they are usually repeats but may differ in a detail not shown here. Equal entries are not always repeated.

Legend:
VcMshEN wild type = assay type: binding, Vibrio cholerae
VcMshEN G40I = VcMshEN G40I (Vibrio cholerae, UniProt Q9KUV7, G40I); assay type: binding
[1] = molecular target: Aeromonas veronii CheA (EKB11881 261-390); assay type: binding; conditions: read-out: Dissociation constant (KD)
GST = GST (Schistosoma japonicum, UniProt P08515); experiment: ITC control, GST alone with c-di-GMP; assay type: binding
VcMshEN1-145 (wild type) = VcMshEN1-145 (wild type) (Vibrio cholerae, UniProt Q9KUV7); experiment: biochemical; assay type: binding
[2] = molecular target: D. geothermalis PilB_3 (ABF44566 301-475); experiment: ITC titration of D. geothermalis PilB_3 with c-di-GMP; assay type: binding, Deinococcus geothermalis; conditions: ABF44566_III, ND = not detectable
[3] = molecular target: T1, D. geothermalis PilB_2 (ABF44566 151-300) (Deinococcus geothermalis, UniProt Q1J1R8); experiment: ITC titration of D. geothermalis PilB_2 with c-di-GMP; assay type: binding
T1 sequence (Q1J1R8 151-300): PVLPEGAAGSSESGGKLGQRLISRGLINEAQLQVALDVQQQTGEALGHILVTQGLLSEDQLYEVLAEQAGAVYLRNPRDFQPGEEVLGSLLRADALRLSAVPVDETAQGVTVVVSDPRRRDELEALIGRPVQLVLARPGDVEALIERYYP

[4] = molecular target: T2, Moorella thermoacetica GspE (ABC19863 1-141) (Neomoorella thermoacetica, UniProt A0AAC9HIF0); experiment: ITC titration of Moorella thermoacetica GspE MshEN with c-di-GMP; assay type: binding
T2 sequence (A0AAC9HIF0 1-141): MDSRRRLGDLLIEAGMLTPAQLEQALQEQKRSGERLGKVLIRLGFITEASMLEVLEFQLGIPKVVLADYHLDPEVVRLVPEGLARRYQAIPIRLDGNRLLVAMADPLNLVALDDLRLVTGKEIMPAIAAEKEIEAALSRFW

[5] = test system: full-length MshE protein (ATPase); conditions: cited from earlier work
[6] = molecular target: P. aeruginosa PA3740 (AAG07127); conditions: cited from earlier work
V. cholerae MshEN_N1-65 = V. cholerae MshEN_N1-65 (Vibrio cholerae, UniProt Q9KUV7); experiment: biochemical; assay type: binding
[7] = molecular target: MshEN analogues, diverse bacterial proteins with the c-di-GMP-binding motif; conditions: read-out: binding constants

## cGMP
VcMshEN wild type
  Binding to the MshEN domain: cannot bind

## Nc1nc2c(ncn2[C@@H]2O[C@@H]3CO[P@](=O)(O)O[C@H]4[C@@H](O)[C@H](n5cnc6c(=O)[nH]c(N)nc65)O[C@@H]4CO[P@](=O)(O)O[C@H]3[C@H]2O)c(=O)[nH]1 [c-di-GMP, Cyclic dimeric GMP]
VcMshEN G40I
  Fold change of KD: 72.0
VcMshEN wild type
  Melting temperature Tm, + c-di-GMP: 71 ºC
  Melting temperature increase: 9 º
  Tm Difference (+ c-di-GMP minus absence): 10 ºC
[1]
  Kd: 2600 nM
GST
  c-di-GMP binding: no c-di-GMP binding
VcMshEN1-145 (wild type)
  Kd: 500 nM
[2]
  Dissociation constant (KD): completely lost it binding affinity
[3]
  Ligand/protein ratio: 1.01
[3]; KD, middle domain of PilB (ABF44566)
  Kd: 14 nM and 13.5 nM
[4]
  Ligand/protein ratio: 1.01
[4]; read-out: Dissociation constant (KD)
  Kd: 460 nM
[5]
  Stimulation of ATPase activity by external c-di-GMP: < 10%
[6]
  Kd: ~30 nM
V. cholerae MshEN_N1-65
  Kd: 350 nM
  Ligand/protein ratio: 0.99
[7]
  Kd: ~500 nM

## c-di-AMP
VcMshEN1-145 (wild type)
  Dissociation constant (KD): non-detectable
  KD: non-detectable
